The values that follow come from patent US6869788B2, “DNA encoding novel D-aminoacylase and process for producing D-amino acid by using the same” (Mitsui Chemicals, Inc., priority 2001, dated 2005).

First the molecules themselves.
B1: D-aminoacylase: the D-aminoacylase according to this invention, whose physical properties are listed; source strain not stated at that place (protein, listed as Methylobacterium mesophilicum)
chain: MTDSTRKHDLIIRGGTVIDGRRTPRFRADVAVRDGRLSAIGDLADHRAAQEIDATGRIVAPGFIDSHTHDDQAVLSQPQIPFKVSQGVTTVIAGNCGISAAPLRRDMDLPMPLNLIDVPAEERFTRFADYLDALRARPSSVNVAAMVGHSTLRAVTMPALDREANSEEIARMRALVQEAMDAGAIGVSTGTFYPPAVKATTEEIIEVCRPLTAAGGLYVTHMRDESDQVMTSLEETFRIGRALDVPVVVSHHKVQNTPNFGKSQVTLPFIREAMQRQRVCLDCYPYTAGSTMIRADRGMLEGRVLIAESLPHPECAGRDLDDIARDWGVDRVEAARRLQPGSAIYFLMDEGDVQRILAFDDTMIGSDGIPVGSKPHPRLWGTFPRVLGHYSRDVGLFPLETAVWKMTGLTARNFGLHGRGTLEAGQAADIVVFDAGTVRDAADYAEPTRPAEGIDAVIVNGAITWQGGQHTGARQGQVIRRQAAPSH

Tested on in one data set: not listed separately
Description: Physical properties of the D-aminoacylase (optimal pH, optimal temperature, thermal stability). Format: physicochemical.
Settings: not given
For the molecule B1, the Optimal temperature is listed as 60° C.;.

Still in this data set, the particulars now being: after heating at 40° C. for 20 hours.
For the molecule B1, the “Thermal stability: remaining activity” value is listed as 80% remaining activity.

The next data set has as its system D-aminoacylase derived from Methylobacterium mesophilicum MT 10894 (FERM BP-7856). The experiment in a line: Substrate specificity of E. coli transformed by the DNA containing the D-aminoacylase gene to N-acetyl-DL-amino acids. In kind it is biochemical. To be noted: substrate 5 g/L, 40° C., 16 hours; activity with N-acetyl-DL-tryptophan as substrate = 100. The method, then:
Reactivity and an optical purity were evaluated by analyzing a D-amino acid produced in a reaction and a remaining N-acylamino acid by high performance liquid chromatography (column: CROWNPAK CR(−); Daicel Chemical Industries, Ltd.); column temperature: 40° C.; mobile phase: HClO4 aq. pH 1.5 and 0 to 15% methanol (v/v); flow rate 0.8 mL/min, detection: 210 nm).
E. coli transformed by the plasmid shown in FIG. 1 in Example 7 was subject to shaking culture in an LB medium containing ampicillin (50 μg/mL) at 37° C. overnight. After culturing, the bacterial cells were harvested by centrifugation and washed with a 0.1 M phosphate buffer (pH 7.8). The bacterial cells were suspended in a 0.1 M phosphate buffer (pH 7.8).
Substrate specificity of E. coli transformed by the plasmid shown in FIG. 1 in Example 7 was compared for N-acetyl-DL-amino acids. In this example, the reaction was conducted at a substrate N-acetyl-DL-amino acid concentration of 5 g/L at 40° C. for 16 hours. Relative activities to a variety of N-acetyl-DL-amino acids together with optical purities and reaction yields were determined, assuming that D-aminoacylase activity was 100 when N-acetyl-DL-tryptophan was a substrate.
In the case of `CC(=O)NC(Cc1ccccc1)C(=O)O` (racemic) [N-acetyl-DL-phenylalanine], the “Relative activity (%)” value was found to be 104%. On the same count and under the same terms, to `CC(=O)NC(Cc1ccc(Cl)cc1)C(=O)O` (racemic) [N-acetyl-DL-4-chlorophenylalanine] belongs 89%.

Turning to `CC(=O)NC(Cc1ccc(O)cc1)C(=O)O` (racemic) [N-acetyl-DL-tyrosine], the “Relative activity (%)” value worked out at 67%. With `CC(=O)NC(COCc1ccccc1)C(=O)O` (racemic) [N-acetyl-DL-o-benzylserine], the “Relative activity (%)” value stood at 30%. As to `CC(=O)NC(CCc1ccccc1)C(=O)O` (racemic) [N-acetyl-DL-homophenylalanine], the “Relative activity (%)” value is 45%.

With `CC(=O)NC(Cc1ccc(F)cc1)C(=O)O` (racemic) [N-acetyl-DL-4-fluorophenylalanine], the “Relative activity (%)” value was found to be 99%. Take `CC(=O)NC(Cc1c[nH]c2ccccc12)C(=O)O` (racemic) [N-acetyl-DL-tryptophan]: the “Relative activity (%)” value is recorded as 100%. The same measure, in the same setting: to `CC(=O)NC(Cc1c[nH]c2ccc(O)cc12)C(=O)O` (racemic) [N-acetyl-DL-5-hydroxytryptophan] belongs 80%.
